Experimental data from paper PMC6445164, “Primary mono- and bis-sulfonamides obtained via regiospecific sulfochlorination of N-arylpyrazoles: inhibition profile against a panel of human carbonic anhydrases” (Journal of Enzyme Inhibition and Medicinal Chemistry, 2017).
Read-outs that look alike come from different tables or passages of the source.

Assays:
hCA I = hCA I (Homo sapiens, UniProt P00915); test: stopped-flow CA catalysed CO2 hydration assay, hCA I
hCA II = hCA II (Homo sapiens, UniProt P00918); test: stopped-flow CA catalysed CO2 hydration assay, hCA II
hCA IV = hCA IV (Homo sapiens, UniProt P22748); test: stopped-flow CA catalysed CO2 hydration assay, hCA IV
Sequence of hCA IV (P22748 19-312): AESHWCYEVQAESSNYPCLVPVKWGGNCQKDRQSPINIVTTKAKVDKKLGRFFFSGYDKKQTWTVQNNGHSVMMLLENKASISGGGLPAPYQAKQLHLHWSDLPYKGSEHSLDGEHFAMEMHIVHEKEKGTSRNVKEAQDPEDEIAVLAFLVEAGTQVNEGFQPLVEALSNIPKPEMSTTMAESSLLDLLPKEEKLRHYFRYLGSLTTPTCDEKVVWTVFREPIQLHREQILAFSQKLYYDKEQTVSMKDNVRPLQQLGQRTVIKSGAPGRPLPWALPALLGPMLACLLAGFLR

hCA VII = hCA VII (Homo sapiens, UniProt P43166); test: stopped-flow CA catalysed CO2 hydration assay, hCA VII
Sequence of hCA VII (P43166 whole entry): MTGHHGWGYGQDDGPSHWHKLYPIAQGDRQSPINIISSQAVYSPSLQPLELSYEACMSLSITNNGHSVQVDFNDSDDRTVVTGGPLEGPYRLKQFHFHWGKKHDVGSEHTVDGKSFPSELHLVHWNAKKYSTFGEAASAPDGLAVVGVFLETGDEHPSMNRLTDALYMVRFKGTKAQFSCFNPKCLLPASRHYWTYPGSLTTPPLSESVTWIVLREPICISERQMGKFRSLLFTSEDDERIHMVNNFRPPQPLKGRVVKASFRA

[1] = read-out: hCA Ki (μM) hCA I, recombinant enzyme, stopped-flow CO2 hydration, 15 min preincubation, pH 8.3
[2] = read-out: hCA Ki (μM) hCA II, recombinant enzyme, stopped-flow CO2 hydration, 15 min preincubation, pH 8.3
[3] = read-out: hCA Ki (μM) hCA IV, recombinant enzyme, stopped-flow CO2 hydration, 15 min preincubation, pH 8.3
[4] = read-out: hCA Ki (μM) hCA VII, recombinant enzyme, stopped-flow CO2 hydration, 15 min preincubation, pH 8.3
[5] = within the panel hCA I, II, IV, VII

Sequence of hCA I (P00915 whole entry): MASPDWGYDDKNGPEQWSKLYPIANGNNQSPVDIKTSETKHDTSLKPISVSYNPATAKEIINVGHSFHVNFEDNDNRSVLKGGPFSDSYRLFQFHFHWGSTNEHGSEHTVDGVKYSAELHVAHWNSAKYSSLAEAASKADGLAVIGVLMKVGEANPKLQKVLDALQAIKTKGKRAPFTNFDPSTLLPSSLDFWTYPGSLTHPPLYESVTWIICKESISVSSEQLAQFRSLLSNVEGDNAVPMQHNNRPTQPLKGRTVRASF

NS(=O)(=O)c1cnn(-c2cccc(Cl)c2)c1 [Compound 8h, (3-Chlorophenyl)-^1H-pyrazole-4-sulfonamide]
hCA I inhibition, in words (hCA I): good hCA I, II and VII inhibition activity
Ki (hCA I; [1]): 0.54 µM
hCA II inhibition, in words (hCA II): good hCA I, II and VII inhibition activity
Ki (hCA II; [2]): 0.14 µM
Ki (hCA IV; [3]): 3.74 µM
hCA VII inhibition, in words (hCA VII): good hCA I, II and VII inhibition activity
Ki (hCA VII; [4]): 0.24 µM

Cc1nn(-c2ccc(S(N)(=O)=O)c(Cl)c2)c(C)c1S(N)(=O)=O [Compound 9o, 1-(3-Chloro-4-sulfamoylphenyl)-3,5-dimethyl-^1H-pyrazole-4-sulfonamide]
melting point: 198 to 201 °C
Ki (hCA I): 0.16 µM
Ki (hCA II): 0.008 µM
Ki (hCA IV): 0.93 µM
Ki (hCA VII): 0.71 µM

COc1cc(-n2nc(C)c(S(N)(=O)=O)c2C)ccc1S(N)(=O)=O [Compound 9k, 1-(3-Methoxy-4-sulfamoylphenyl)-3,5-dimethyl-^1H-pyrazole-4-sulfonamide]
melting point: 256 to 258 °C
Ki (hCA I): 4.65 µM
Ki (hCA II): 0.61 µM
Ki (hCA IV): > 10 µM
Ki (hCA VII): 0.17 µM

Cc1ccc(S(N)(=O)=O)cc1-n1nc(C)c(S(N)(=O)=O)c1C [Compound 9h, 3,5-Dimethyl-1-(2-methyl-5-sulfamoylphenyl)-^1H-pyrazole-4-sulfonamide]
melting point: 308 to 310 °C
Ki (hCA I): 0.87 µM
isoform selectivity for hCA I, in words (hCA I; [5]): selective inhibitor of hCA I
Ki (hCA II): > 10 µM
Ki (hCA IV): > 10 µM
Ki (hCA VII): > 10 µM

NS(=O)(=O)c1ccc(-n2cc(S(N)(=O)=O)cn2)cc1 [Compound 9c, 1-(4-Sulfamoylphenyl)-^1H-pyrazole-4-sulfonamide]
melting point: 254 to 257 °C
Ki (hCA I): 0.2 µM
Ki (hCA II): 0.002 µM
Ki (hCA IV): 0.025 µM
Ki (hCA VII): 0.041 µM

COc1cc(-n2cccn2)ccc1S(N)(=O)=O [Compound 7j, 2-Methoxy-4-(^1H-pyrazol-1-yl)benzenesulfonamide]
melting point: 221 to 223 °C
Ki (hCA I): > 10 µM
Ki (hCA II): > 10 µM
Ki (hCA IV): > 10 µM
Ki (hCA VII): 0.387 µM
isoform selectivity for hCA VII, in words (hCA VII; [5]): quite notable

NS(=O)(=O)c1ccc(-n2cccn2)cc1Cl [Compound 7m, 2-Chloro-4-(^1H-pyrazol-1-yl)benzenesulfonamide]
melting point: 181 to 183 °C
Ki (hCA I): 0.066 µM
Ki (hCA II): 0.085 µM
Ki (hCA IV): 0.086 µM
Ki (hCA VII): 0.328 µM

Cc1ccc(-n2nc(C)c(S(N)(=O)=O)c2C)cc1 [Compound 8c, 3,5-Dimethyl-1-(4-methylphenyl)-^1H-pyrazole-4-sulfonamide]
melting point: 171 to 174 °C
Ki (hCA I): 0.76 µM
Ki (hCA II): 0.74 µM
Ki (hCA IV): > 10 µM
Ki (hCA VII): > 10 µM

Cc1ccc(S(N)(=O)=O)cc1-n1cccn1 [Compound 7f]
Ki (hCA I; [1]): 1.23 µM
Ki (hCA II; [2]): 0.059 µM
Ki (hCA IV; [3]): > 10 µM
Ki (hCA VII; [4]): 0.059 µM

Cc1nn(-c2cccc(S(N)(=O)=O)c2)c(C)c1S(N)(=O)=O [Compound 9a, 3,5-Dimethyl-1-(3-sulfamoylphenyl)-^1H-pyrazole-4-sulfonamide]
melting point: 223 to 225 °C
Ki (hCA I): 0.5 µM
Ki (hCA II): 0.021 µM
Ki (hCA IV): 0.065 µM
Ki (hCA VII): 0.26 µM

COc1ccc(S(N)(=O)=O)cc1-n1nc(C)c(S(N)(=O)=O)c1C [Compound 9l, 1-(2-Methoxy-5-sulfamoylphenyl)-3,5-dimethyl-^1H-pyrazole-4-sulfonamide]
melting point: 238 to 242 °C
Ki (hCA I): 6.8 µM
Ki (hCA II): 0.3 µM
Ki (hCA IV): 0.95 µM
Ki (hCA VII): > 10 µM

NS(=O)(=O)c1ccc(Cl)c(-n2cc(S(N)(=O)=O)cn2)c1 [Compound 9r, 1-(2-Chloro-5-sulfamoylphenyl)-^1H-pyrazole-4-sulfonamide]
melting point: 235 to 237 °C
Ki (hCA I): 0.55 µM
Ki (hCA II): 0.005 µM
Ki (hCA IV): 0.022 µM
Ki (hCA VII): 0.6 µM

Cc1nn(-c2ccccc2Cl)c(C)c1S(N)(=O)=O [Compound 8i, 1-(2-Chlorophenyl)-3,5-dimethyl-^1H-pyrazole-4-sulfonamide]
melting point: 204 to 206 °C
Ki (hCA I): 0.62 µM
Ki (hCA II): 2.64 µM
Ki (hCA IV): 7.19 µM
Ki (hCA VII): > 10 µM

COc1ccc(-n2nc(C)c(S(N)(=O)=O)c2C)cc1S(N)(=O)=O [Compound 9j, 1-(4-Methoxy-3-sulfamoylphenyl)-3,5-dimethyl-^1H-pyrazole-4-sulfonamide]
melting point: 254 to 257 °C
Ki (hCA I): 0.95 µM
Ki (hCA II): 0.96 µM
Ki (hCA IV): > 10 µM
Ki (hCA VII): 0.33 µM

Cc1cc(-n2cccn2)ccc1S(N)(=O)=O [Compound 7d, 2-Methyl-4-(^1H-pyrazol-1-yl)benzenesulfonamide]
melting point: 161 to 163 °C
Ki (hCA I): 0.096 µM
Ki (hCA II): 0.008 µM
Ki (hCA IV): 3.42 µM
Ki (hCA VII): 0.014 µM
